This is an account of results in ChEMBL document CHEMBL3045481, “Insecticide-induced resurgence of the whitebacked planthopper Sogatella furcifera (Horvath) (Hemiptera: Delphacidae) on rice varieties with different levels of resistance” (Crop Prot, 2011).

The subject of assay [1] is Sogatella furcifera. As to the kind of experiment: Insecticidal activity against Sogatella furcifera on insect-sensitive rice plant ARC6248 assessed as nymphal duration at 0.0018% concentration (reference value: 14.48 days). The format is functional.
Assay [2] relates to Sogatella furcifera. As to the kind of experiment: Insecticidal activity against Sogatella furcifera on insect-resistanct rice plant PR116 assessed as growth index at 0.0018% concentration (reference value: 6.02%). The format is functional.
The subject of assay [3] is Sogatella furcifera. The assay can be described thus: Insecticidal activity against Sogatella furcifera on insect-resistanct rice plant PR116 assessed as nymphal duration at 0.0018% concentration (reference value: 11.75 days). It counts as functional.
The subject of assay [4] is Sogatella furcifera. As to the kind of experiment: Insecticidal activity against Sogatella furcifera on insect-sensitive rice plant ARC6248 assessed as reproduction at 0.0018% concentration. It counts as functional, organism-based.
Assay [5] concerns Sogatella furcifera. The assay can be described thus: Insecticidal activity against Sogatella furcifera on insect-sensitive rice plant ARC6248 assessed as growth index at 0.0018% concentration (reference value: 2.38%). It counts as functional.
For assay [6], the system named is Sogatella furcifera. The assay can be described thus: Insecticidal activity against Sogatella furcifera on insect-resistanct rice plant PR116 assessed as resurgence ratio at 0.100% concentration. It counts as functional.
For assay [7], the system named is Sogatella furcifera. As to the kind of experiment: Insecticidal activity against Sogatella furcifera on insect-resistanct rice plant PR116 assessed as nymphal survival at 0.0018% concentration (reference value: 70.28%). It counts as functional.
The subject of assay [8] is Sogatella furcifera. As to the kind of experiment: Insecticidal activity against Sogatella furcifera on insect-sensitive rice plant ARC6248 assessed as resurgence ratio at 0.100% concentration. The format is functional.
In assay [9] the test system is Sogatella furcifera. As to the kind of experiment: Insecticidal activity against Sogatella furcifera on insect-sensitive rice plant ARC6248 assessed as nymphal survival at 0.0018% concentration (reference value: 34.17%). The format is functional.
The subject of assay [10] is Sogatella furcifera. The assay can be described thus: Insecticidal activity against adult Sogatella furcifera on insect-resistanct rice plant PR116 assessed as high mortality at 0.0035% concentration. It counts as functional, organism-based.
Assay [11] relates to Sogatella furcifera. As to the kind of experiment: Insecticidal activity against adult Sogatella furcifera on insect-sensitive rice plant ARC6248 assessed as high mortality at 0.0035% concentration. The format is functional, organism-based.
Assay [12] has as its system Sogatella furcifera. As to the kind of experiment: Insecticidal activity against Sogatella furcifera on insect-resistanct rice plant PR116 assessed as reproduction at 0.0018% concentration. The format is functional, organism-based.

Active and inactive are the calls of the source. The rule behind the calls is not given here.

As to `O=[N+]([O-])/N=C1\NCCN1Cc1ccc(Cl)nc1` [IMIDACLOPRID], the Time is 14.46 days in [1] and 11.85 days in [3]. Further, the entries for the “growth inhibition (GI)” value in [2] and in assay [5] were 5.91% and 2.48%, respectively. For the same compound, the inhibition result in assay [4] and in [12] was “inactive” each time. The Ratio in [6] and in assay [8] was less than 1 in each case. For the same compound, the figures for the Survival in [7] and in assay [9] were 69.72% and 35.56%, respectively. In addition, the inhibition result in assay [10] and in [11] was “Active” each time.
